Earlier results as cited in patent US20220016128A1, “METHODS, SYSTEM, AND KIT FOR MONITORING, DIAGNOSING, AND TREATING IMPULSIVE AGGRESSION” (Supernus Pharmaceuticals, Inc., priority 2016, published 2022).

How the values were obtained:
[1] = oral dose
[2] = acidic to slightly acidic media versus neutral to slightly alkaline pH (physiologic pH range of the gastro-intestinal tract)

plasma elimination half-life [1]: about 2 hours
Structure (SMILES): CCc1c(C)[nH]c2c1C(=O)C(CN1CCOCC1)CC2 (centres unmarked) [molindone, 3-Ethyl-6,7-dihydro-2-methyl-5-(morpholinomethyl)indol-4(5H)-one]
solubility [2]: greater solubility in acidic to slightly acidic media than in neutral to slightly alkaline pH values
